The nature of series [1]: Bulk density determination of felbamate (10 ml graduated cylinder, 50 taps). In kind it is physicochemical.
Experiment in series [2]: as above
It counts as physicochemical. An excerpt:
One important characteristic is tapped bulk density, or simply tapped (or tap) density, that is the maximum packing density of a powder (or blend of powders) achieved under the influence of well defined, externally applied forces (see, http://en.wikipedia.org/wiki/Bulk_density). The minimum packed volume thus achieved depends on a number of factors including particle size distribution, true density, particle shape and cohesiveness due to surface forces including moisture. Therefore, the tap density of a material can be used to predict both its flow properties and its compressibility. These two parameters are important in the overall tabletting process, which requires that loose powders be compacted into a durable solid form with the correct mechanical strength, porosity and dissolution characteristics. These parameters are also important in the formation of oral suspensions, which ideally contain particles of high bulk density, enabling even dispersion of the particles throughout the suspension after shaking and before consumption.
Felbamate (1.211 gm) purified by the above process (Example 3) was poured into a 10 ml graduated cylinder. The untapped volume of felbamate was 3.5 ml, resulting in an untapped bulk density of 0.35 gm/ml which was greater than the untapped bulk density of felbamate prepared by other methods (see below, Examples 9 and 10). The graduated cylinder was tapped until the felbamate (50 taps) no longer settled. The volume of felbamate after tapping was 2.2 ml, resulting in a tapped bulk density of 0.55 gm/ml.
Felbamate (0.972 gm) synthesized by the process disclosed in WO 94/06737 was poured into a 10 ml graduated cylinder. The untapped volume of felbamate was 5.1 ml, resulting in an untapped bulk density of 0.19 gm/ml. The graduated cylinder was tapped until the felbamate (50 taps) no longer settled. The volume of felbamate after tapping was 3.2 ml, resulting in a tapped bulk density of 0.30 gm/ml.
Felbamate (2 gm) synthesized by the process disclosed in U.S. Pat. No. 4,868,327 was purified by adding to 20 ml of methanol, heating the methanol to reflux to obtain a clear solution, cooling the solution to room temperature over three hours with stirring, and isolating the felbamate by filtration and drying under vacuum at 50° C. Felbamate (0.927 gm) purified by this process was poured into a 10 ml graduated cylinder. The untapped volume of felbamate was 6.5 ml, resulting in an untapped bulk density of 0.14 gm/ml. The graduated cylinder was tapped until the felbamate (50 taps) no longer settled. The volume of felbamate after tapping was 2.9 ml, resulting in a tapped bulk density of 0.32 gm/ml.
This is another data set of the same source.

For the compound `NC(=O)OCC(COC(N)=O)c1ccccc1` [Felbamate, 2-phenyl-1,3-propanediol dicarbamate], the tapped bulk density came out at 0.55 gm/ml in series [1] (felbamate purified from acetonitrile-water (Example 4)); 0.54 gm/ml in series [1] (felbamate purified from isopropanol-water (Example 6)); 0.35 gm/ml in series [1] (felbamate purified from water (Example 7)); 0.32 g/mL in series [2] (Table I, U.S. Pat. No. 4,868,327, 50 taps); 0.3 g/mL in series [2] (Table I, WO 94/06737, 50 taps); 0.55 g/mL in series [2] (Table I, purification process as disclosed in Example 3, 50 taps). Besides, the tapped bulk density in series [2] (felbamate by process of U.S. Pat. No. 4,868,327, recrystallised from methanol, 50 taps (Example 10)) came to 0.32 gm/ml; in series [2] (felbamate purified by process of Example 3, 50 taps (Example 8)), 0.55 gm/ml; in series [2] (felbamate purified from methanol-water (Example 3)) it was 0.5 gm/ml; in series [2] (felbamate purified from tetrahydrofuran-water (Example 5)), 0.4 gm/ml; in series [2] (felbamate synthesized by process of WO 94/06737, 50 taps (Example 9)), 0.30 gm/ml. Moreover, the untapped bulk density turned out to be 0.14 g/mL in series [2] (Table I, U.S. Pat. No. 4,868,327); 0.19 g/mL in series [2] (Table I, WO 94/06737); 0.35 g/mL in series [2] (Table I, purification process as disclosed in Example 3); 0.14 gm/ml in series [2] (felbamate by process of U.S. Pat. No. 4,868,327, recrystallised from methanol (Example 10)); 0.35 gm/ml in series [2] (felbamate purified by process of Example 3, 1.211 gm in 10 ml cylinder (Example 8)); 0.19 gm/ml in series [2] (felbamate synthesized by process of WO 94/06737 (Example 9)).
